Measurements published in patent publication US9018238B2, “Inhibitor of casein kinase 1δ and casein kinase 1ε” (Pharmadesign, Inc., priority 2009, dated 2015).

tested on: human pancreatic cancer cell line; assay: not given; details: human pancreatic cancer cell line in vitro; cited from earlier work

| SMILES | cell growth |
| --- | --- |
| COc1cc(OC)c(C=C2C(O)=Nc3ccccc32)c(OC)c1 [IC261] | suppression of the cell growth was observed |

tested on: N2A cells (N2A-APP695 cells); assay: not given; details: N2A-APP695 cells excessively expressing constitutively active casein kinase 1ε; cited from earlier work

| SMILES | amount of Aβ40 | amount of Aβ42 |
| --- | --- | --- |
| COc1cc(OC)c(C=C2C(O)=Nc3ccccc32)c(OC)c1 [IC261] | decreased | decreased |

tested on: rats; assay: not given; details: subcutaneous administration; cited from earlier work

| SMILES | phase of circadian rhythm |
| --- | --- |
| Nc1nccc(-c2c(-c3ccc(F)cc3)ncn2C2CCCCC2)n1 [PF-670462, 4-[3-cyclohexyl-5-(4-fluoro-phenyl)-3H-imidazol-4-yl]-pyrimidin-2-ylamine] | significantly delayed |

tested on: human pancreatic cancer cell line transplanted into the subcutis of a mouse; assay: not given; details: cited from earlier work

| SMILES | growth of tumor cells |
| --- | --- |
| Nc1ccn([C@@H]2O[C@H](CO)[C@@H](O)C2(F)F)c(=O)n1 [gemcitabine] | significant effect of suppressing the growth of tumor cells |
| COc1cc(OC)c(C=C2C(O)=Nc3ccccc32)c(OC)c1 [IC261] | significant effect of suppressing the growth of tumor cells |

molecular target: T1, human recombinant casein kinase 1δ (Homo sapiens, UniProt P48730); assay: Casein kinase 1δ inhibition assay (Z'-LYTE Ser/Thr 11 Peptide); assay type: biochemical; details: 0.3 μg/ml compound, 3.0 μg/ml enzyme, 1.0 μM peptide, 20 μM ATP; 15 min pre-reaction, 2 hours; read-out: Casein kinase 1δ inhibitory rate
T1 construct: purchased INVITROGEN PV3665
Method: (§1) The activity of the present compound to inhibit casein kinase 1δ and casein kinase 1ε was measured using human recombinant casein kinase 1δ (INVITROGEN; Cat No. PV3665) or casein kinase 1ε (INVITROGEN; Cat No. PV3500) as an enzyme source, and using Z′-LYTE Ser/Thr 11 Peptide (INVITROGEN; Cat No. PV3671) as a phosphorylation substrate. The compositions (final concentrations) applied during the inhibitory activity measurement assays are as follows.
Assay of Casein Kinase 1δ
3.0 μg/ml casein kinase 1δ, 0.3 μg/ml the present compound, 1.0 μM peptide, 20 μM ATP, 50 mM HEPES (pH 7.4), 10 mM MgCl2, 0.01% Brij-35, and 0.5% DMSO
(§2) The present compound had previously been reacted with the enzyme at room temperature for 15 minutes. Two hours after completion of the reaction, the remaining phosphorylation activity was measured using Z′-LYTE Kinase Assay Kit-Ser/Thr 11 Peptide (INVITROGEN; Cat No. PV3670).
(§3) The inhibitory rate of the present compound was calculated with respect to the phosphorylation activity of each of casein kinase 1δ and casein kinase 1ε in a case in which no such compounds were added. Tables 1 to 4 show the inhibitory rate (%) of each compound.

T1 sequence (P48730 whole entry): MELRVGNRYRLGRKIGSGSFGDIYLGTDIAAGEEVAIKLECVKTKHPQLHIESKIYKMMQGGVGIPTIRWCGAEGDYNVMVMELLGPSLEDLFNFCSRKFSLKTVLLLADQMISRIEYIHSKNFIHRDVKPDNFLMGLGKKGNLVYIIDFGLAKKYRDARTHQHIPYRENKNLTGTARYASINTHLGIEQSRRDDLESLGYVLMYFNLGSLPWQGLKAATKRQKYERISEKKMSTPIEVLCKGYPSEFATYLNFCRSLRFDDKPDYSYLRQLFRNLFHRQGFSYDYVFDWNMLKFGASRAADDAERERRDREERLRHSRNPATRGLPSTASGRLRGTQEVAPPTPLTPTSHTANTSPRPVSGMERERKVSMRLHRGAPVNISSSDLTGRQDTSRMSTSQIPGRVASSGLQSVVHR

| inhibition at 0.3 µg/mL | SMILES |
| --- | --- |
| 82% | COc1cncc(/C=C2\N=C(c3ccc(C)s3)OC2=O)c1 [Example 1, 4-((5-Methoxy-3-pyridinyl)methylene)-2-(5-methyl-2-thienyl)-5(4H)-oxazolone] |
| 60.5% | COc1cc(/C=C2\N=C(c3cccs3)OC2=O)ccn1 [Example 9, 4-((2-Methoxy-4-pyridinyl)methylene)-2-(2-thienyl)-5(4H)-oxazolone] |
| 55.3% | COc1ccc(/C=C2\N=C(c3cccs3)OC2=O)c(C)n1 [Example 18, 4-((6-Methoxy-2-methyl-3-pyridinyl)methylene)-2-(2-thienyl)-5(4H)-oxazolone] |
| 94.2% | COc1ccc(C2=N/C(=C\c3cccnc3)C(=O)O2)cc1Br [2-(3-Bromo-4-methoxyphenyl)-4-(3-pyridinylmethylene)-5-(4H)-oxazolone] |
| 91% | COc1ccc(/C=C2\N=C(c3cccs3)OC2=O)cc1[N+](=O)[O-] [4-((4-Methoxy-3-nitrophenyl)methylene)-2-(2-thienyl)-5(4H)-oxazolone] |
| 91.1% | COc1cncc(/C=C2\N=C(c3cccs3)OC2=O)c1 [Example 2, 4-((5-Methoxy-3-pyridinyl)methylene)-2-(2-thienyl)-5(4H)-oxazolone] |
| 85.9% | O=C1OC(c2cccs2)=N/C1=C\c1ccc([N+](=O)[O-])c(Br)c1 [4-((3-Bromo-4-nitrophenyl)methylene)-2-(2-thienyl)-5(4H)-oxazolone] |
| 87.6% | O=C1OC(c2cccs2)=N/C1=C\c1ccc([N+](=O)[O-])c(Cl)c1 [4-((3-Chloro-4-nitrophenyl)methylene)-2-(2-thienyl)-5(4H)-oxazolone] |
| 76.1% | COc1ccc(/C=C2\N=C(c3cccs3)OC2=O)c(Cl)n1 [Example 19, 4-((2-Chloro-6-methoxy-3-pyridinyl)methylene)-2-(2-thienyl)-5(4H)-oxazolone] |
| 29% | COCc1ccc(/C=C2\N=C(c3cccs3)OC2=O)o1 [Example 12, 4-((5-Methoxymethyl-2-furanyl)methylene)-2-(2-thienyl)-5(4H)-oxazolone] |
| 74.3% | O=C1OC(c2cccs2)=N/C1=C\c1cc2c(cc1Cl)OCO2 [4-((6-Chloro-1,3-benzodioxol-5-yl)methylene)-2-(2-thienyl)-5(4R)-oxazolone] |
| 87.4% | O=C1OC(c2cccs2)=N/C1=C\c1cncc(F)c1 [Example 3, 4-((5-Fluoro-3-pyridinyl)methylene)-2-(2-thienyl)-5(4H)-oxazolone] |
| 73.6% | Cn1cc(/C=C2\N=C(c3cccs3)OC2=O)cn1 [4-((1-Methyl-1H-pyrazol-4-yl)methylene)-2-(2-thienyl)-5(4H)-oxazolone] |
| 37% | Cn1cnc(/C=C2\N=C(c3cccs3)OC2=O)c1 [Example 10, 4-((1-Methyl-1H-imidazol-yl)methylene)-2-(2-thienyl)-5(4H)-oxazolone] |
| 86.3% | COc1ccc(/C=C2\N=C(c3cccs3)OC2=O)cn1 [Example 5, 4-((6-Methoxy-3-pyridinyl)methylene)-2-(2-thienyl)-5(4H)-oxazolone] |
| 85% | O=C1OC(/C=C/c2ccccc2)=NC/1=C\c1cccnc1 [2-(2-phenylethenyl)-4-(3-pyridinylmethylene)-5(4H)-oxazolone] |
| 76.7% | O=C1OC(c2cccs2)=N/C1=C\c1cc(Cl)c2c(c1)OCCO2 [4-((8-Chloro-2,3-dihydro-1,4-benzodioxin-6-yl)methylene)-2-(2-thienyl)-5(4H)-oxazolone] |
| 67.9% | O=C1OC(c2cccs2)=N/C1=C\c1cocn1 [Example 13, 4-((4-Oxazoyl)methylene)-2-(2-thienyl)-5(4H)-oxazolone] |
| 96.1% | COc1ccc(/C=C2\N=C(c3cccs3)OC2=O)cc1 [4-((4-methoxyphenyl)methylene)-2-(2-thienyl)-5(4H)-oxazolone] |
| 83.2% | Cc1cc(C2=N/C(=C\c3cccnc3)C(=O)O2)ccc1Br [2-(4-Bromo-3-methylphenyl)-4-(3-pyridinylmethylene)-5(4H)-oxazolone] |
| 32.2% | O=C1OC(c2cccs2)=N/C1=C\c1csnn1 [Example 14, 4-((1,2,3-Thiadiazol-4-yl)methylene)-2-(2-thienyl)-5(4H)-oxazolone] |
| 86.8% | COC(=O)c1ccc(/C=C2\N=C(c3cccs3)OC2=O)cc1 [Methyl 4-((5-oxo-2-(2-thienyl)oxazol-4(5H)-ylidene)methyl) benzoate] |
| 65.6% | O=C1OC(c2cccs2)=N/C1=C\c1cccnc1F [Example 4, 4-((2-Fluoro-3-pyridinyl)methylene)-2-(2-thienyl)-5(4H)-oxazolone] |

molecular target: T2, human recombinant casein kinase 1ε (Homo sapiens, UniProt P49674); assay: Casein kinase 1ε inhibition assay (Z'-LYTE Ser/Thr 11 Peptide); assay type: biochemical; details: 0.3 μg/ml compound, 0.5 μg/ml enzyme, 1.0 μM peptide, 20 μM ATP; 15 min pre-reaction, 2 hours; read-out: Casein kinase 1ε inhibitory rate
T2 construct: purchased INVITROGEN PV3500
Method: as §1, with “follows. […]” for “follows.”
as §2, §3

T2 sequence (P49674 whole entry): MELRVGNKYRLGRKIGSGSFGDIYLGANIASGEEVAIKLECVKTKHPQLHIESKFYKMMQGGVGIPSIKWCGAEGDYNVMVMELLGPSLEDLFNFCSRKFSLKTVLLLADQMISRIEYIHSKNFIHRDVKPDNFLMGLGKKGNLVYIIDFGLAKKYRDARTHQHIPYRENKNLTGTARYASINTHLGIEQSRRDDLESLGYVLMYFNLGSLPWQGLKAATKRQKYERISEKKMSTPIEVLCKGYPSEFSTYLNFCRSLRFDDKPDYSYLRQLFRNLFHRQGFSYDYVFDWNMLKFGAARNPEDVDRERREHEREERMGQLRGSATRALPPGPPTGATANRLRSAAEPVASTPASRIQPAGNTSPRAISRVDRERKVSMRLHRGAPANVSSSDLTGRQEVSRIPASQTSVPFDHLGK

| inhibition at 0.3 µg/mL | SMILES |
| --- | --- |
| 97.1% | COc1cncc(/C=C2\N=C(c3ccc(C)s3)OC2=O)c1 [Example 1, 4-((5-Methoxy-3-pyridinyl)methylene)-2-(5-methyl-2-thienyl)-5(4H)-oxazolone] |
| 93.8% | COc1cc(/C=C2\N=C(c3cccs3)OC2=O)ccn1 [Example 9, 4-((2-Methoxy-4-pyridinyl)methylene)-2-(2-thienyl)-5(4H)-oxazolone] |
| 32.8% | COc1ccc(/C=C2\N=C(c3cccs3)OC2=O)c(C)n1 [Example 18, 4-((6-Methoxy-2-methyl-3-pyridinyl)methylene)-2-(2-thienyl)-5(4H)-oxazolone] |
| 99.4% | COc1ccc(C2=N/C(=C\c3cccnc3)C(=O)O2)cc1Br [2-(3-Bromo-4-methoxyphenyl)-4-(3-pyridinylmethylene)-5-(4H)-oxazolone] |
| 94.8% | COc1ccc(/C=C2\N=C(c3cccs3)OC2=O)cc1[N+](=O)[O-] [4-((4-Methoxy-3-nitrophenyl)methylene)-2-(2-thienyl)-5(4H)-oxazolone] |
| 96.6% | COc1cncc(/C=C2\N=C(c3cccs3)OC2=O)c1 [Example 2, 4-((5-Methoxy-3-pyridinyl)methylene)-2-(2-thienyl)-5(4H)-oxazolone] |
| 94.4% | O=C1OC(c2cccs2)=N/C1=C\c1ccc([N+](=O)[O-])c(Br)c1 [4-((3-Bromo-4-nitrophenyl)methylene)-2-(2-thienyl)-5(4H)-oxazolone] |
| 97.6% | O=C1OC(c2cccs2)=N/C1=C\c1ccc([N+](=O)[O-])c(Cl)c1 [4-((3-Chloro-4-nitrophenyl)methylene)-2-(2-thienyl)-5(4H)-oxazolone] |
| 52.5% | COc1ccc(/C=C2\N=C(c3cccs3)OC2=O)c(Cl)n1 [Example 19, 4-((2-Chloro-6-methoxy-3-pyridinyl)methylene)-2-(2-thienyl)-5(4H)-oxazolone] |
| 9% | COCc1ccc(/C=C2\N=C(c3cccs3)OC2=O)o1 [Example 12, 4-((5-Methoxymethyl-2-furanyl)methylene)-2-(2-thienyl)-5(4H)-oxazolone] |
| 97% | O=C1OC(c2cccs2)=N/C1=C\c1cc2c(cc1Cl)OCO2 [4-((6-Chloro-1,3-benzodioxol-5-yl)methylene)-2-(2-thienyl)-5(4R)-oxazolone] |
| 92.1% | O=C1OC(c2cccs2)=N/C1=C\c1cncc(F)c1 [Example 3, 4-((5-Fluoro-3-pyridinyl)methylene)-2-(2-thienyl)-5(4H)-oxazolone] |
| 48.8% | Cn1cc(/C=C2\N=C(c3cccs3)OC2=O)cn1 [4-((1-Methyl-1H-pyrazol-4-yl)methylene)-2-(2-thienyl)-5(4H)-oxazolone] |
| 18.1% | Cn1cnc(/C=C2\N=C(c3cccs3)OC2=O)c1 [Example 10, 4-((1-Methyl-1H-imidazol-yl)methylene)-2-(2-thienyl)-5(4H)-oxazolone] |
| 95.6% | COc1ccc(/C=C2\N=C(c3cccs3)OC2=O)cn1 [Example 5, 4-((6-Methoxy-3-pyridinyl)methylene)-2-(2-thienyl)-5(4H)-oxazolone] |
| 83.4% | O=C1OC(/C=C/c2ccccc2)=NC/1=C\c1cccnc1 [2-(2-phenylethenyl)-4-(3-pyridinylmethylene)-5(4H)-oxazolone] |
| 85.8% | O=C1OC(c2cccs2)=N/C1=C\c1cc(Cl)c2c(c1)OCCO2 [4-((8-Chloro-2,3-dihydro-1,4-benzodioxin-6-yl)methylene)-2-(2-thienyl)-5(4H)-oxazolone] |
| 32% | O=C1OC(c2cccs2)=N/C1=C\c1cocn1 [Example 13, 4-((4-Oxazoyl)methylene)-2-(2-thienyl)-5(4H)-oxazolone] |
| 98.6% | COc1ccc(/C=C2\N=C(c3cccs3)OC2=O)cc1 [4-((4-methoxyphenyl)methylene)-2-(2-thienyl)-5(4H)-oxazolone] |
| 97.8% | Cc1cc(C2=N/C(=C\c3cccnc3)C(=O)O2)ccc1Br [2-(4-Bromo-3-methylphenyl)-4-(3-pyridinylmethylene)-5(4H)-oxazolone] |
| 19.2% | O=C1OC(c2cccs2)=N/C1=C\c1csnn1 [Example 14, 4-((1,2,3-Thiadiazol-4-yl)methylene)-2-(2-thienyl)-5(4H)-oxazolone] |
| 95.1% | COC(=O)c1ccc(/C=C2\N=C(c3cccs3)OC2=O)cc1 [Methyl 4-((5-oxo-2-(2-thienyl)oxazol-4(5H)-ylidene)methyl) benzoate] |
| 39.2% | O=C1OC(c2cccs2)=N/C1=C\c1cccnc1F [Example 4, 4-((2-Fluoro-3-pyridinyl)methylene)-2-(2-thienyl)-5(4H)-oxazolone] |
